Source: patent publication US8013163B2 (Astex Therapeutics Limited, priority 2005, dated 2011)
Counter-ions that a name gives are not always drawn.

Key:
[1] = test system: malignant cells from B-cell chronic lymphocytic leukemia (B-CLL); settings: in vitro; cited from earlier work
[2] = Solubility of the mesylate salt in aqueous solution at pH 1 to 11 (UV-Vis assay); type: physicochemical
Description: Solutions were prepared by titrating standard hydrochloric acid with dilute sodium hydroxide solution to a desired pH. […] These solutions were then used to assess the solubility of 4-(2,6-dichlorobenzoylamino)-1/i-pyrazole-3-carboxylic acid piperidin-4-ylamide methanesulphonate.
In each experiment, 150 mg of the methanesulphonate salt was weighed into a 5 ml clear vial and 3-4 ml of a solution of a given pH was added. […] In each case, the solution was then filtered through a 0.22 μm PVDF filter, the pH of the clear solution obtained was recorded, and the solution was assayed for methanesulphonate salt content using a UV-Vis spectrophotometer and standard solutions of the salt.

[3] = Solubility of the mesylate salt in buffered solutions (HPLC assay); type: physicochemical; settings: acetate buffer, pH 4.6, aqueous buffer, thermodynamic from solid
Description: An investigation into the solubility of the mesylate salt of Example 1 in various buffering systems was carried out at ambient temperature and at 4° C. In a first set of experiments, the buffers selected were 200 mM succinate pH 5.5, citrate pH 5.5, and Tris/maleate pH 5.5, 6.5 and 7.5. A second set of buffers utilised included a 200 mM acetate pH 4.6, glycine/methanesulphonic acid pH 4.6 and glycine pH 5.5.
This buffer was prepared by dissolving 4.44 g sodium acetate in 200 ml water. A volume (50 ml) of this solution was titrated with 0.20 M acetic acid solution ([…] in 200 ml water) and made up to 200 ml with water. A 0.20 M acetate buffer solution of pH 4.6 was prepared.
With each pH and buffer system, two experiments were performed, one at ambient temperature and one at 4° C. In each experiment, to 4.0 ml buffer solution was added a nominal 220 mg of the mesylate salt and the solution mixture was stirred. The stirring was stopped after 3 hours, the solution filtered through a PVDF 0.22 μm membrane filter, diluted in sample diluent and assayed for mesylate salt content by HPLC. Throughout the experiments, the mesylate salt content of each sample was calculated using single point calibration each time.

[4] = Gravimetric Vapour Sorption (GVS) study; type: physicochemical
Description: (i) Gravimetric Vapour Sorption (GVS) studies were carried out to investigate the behaviour of the mesylate salt in conditions of varying humidity. The mesylate salt used in the studies was prepared from the hydrochloride salt (see Example 11) by the following method.
Samples of the mesylate salt produced by the method described above were run on a Hiden IGASorp moisture sorption analyser running CFRSorp software. The sample sizes were typically 10 mg. Moisture adsorption-desorption isotherms were performed as set out in the following table:
A double cycle was run using a sample of 12.92 mg of the mesylate salt. […] However, provided that the salt is not exposed to relative humidities of more than 80%, the water uptake is less than 2.6% w/w. Importantly, water which was taken up during the adsorption stage was lost during the desorption state indicating the uptake of water is a surface effect.

[5] = Stability trial of methanesulphonate salt at 40° C./75% relative humidity for six months; type: physicochemical
Description: Samples of the methanesulphonate salt of Example 1 were stored in sealed bags inside a sealed container at a temperature of 40° C. and in an atmosphere of 75% relative humidity for a period of six months. At periods of 1 month, 3 months and 6 months, various tests were carried out to determine whether any changes to the purity or physical state of the salt had occurred. The tests were as follows:
(a) Visual examination of the colour and physical appearance of the salt.
(b) Fourier Transform Infra Red (FTIR) spectroscopy—comparison with reference standard spectrum.
(c) Determination of melting point by differential scanning calorimetry (DSC).
(d) Determination of water content by a coulometric method using the coulometric reagent AKX.
(e) Analysis of impurities by HPLC.

[6] = Stability of acetate buffered salt solution (autoclaving, heating, freeze-thaw); type: physicochemical
Description: Autoclaving at 121° C. for 15 minutes, followed by heating the solution further at 40° C., 55° C. or 75° C. for 10-12 days, were carried out on the acetate buffered salt solution.

[7] = Exposure at 40° C./approximately 75% relative humidity with XRPD and HPLC analysis; type: physicochemical; settings: approximately 75% relative humidity
Description: (ii) In a separate test, approximately 10 mg of the mesylate salt as prepared above was pressed flat onto a glass slide to achieve a high surface area and placed in a dessicator containing a saturated aqueous solution of sodium chloride. This in turn was placed in an incubator held at 40° C. to provide an atmosphere of approximately 75% relative humidity. The sample was removed on 8 and 18 days and the XRPD profiles of the sample at these times were compared to the XRPD profile of the salt prior to commencement of the test.

HCT-1 16 cells = assay: Anti-proliferative activity (Alamar Blue assay); type: cell-based; settings: Homo sapiens, HCT-116, 72 hours
Description: The anti-proliferative activities of a compound can be determined by measuring the ability of the compound to inhibition of cell growth in a number of cell lines. Inhibition of cell growth is measured using the Alamar Blue assay (Nociari, M. M, Shalev, A., Benias, P., Russo, C. Journal of Immunological Methods 1998, 213, 157-167). The method is based on the ability of viable cells to reduce resazurin to its fluorescent product resorufin. For each proliferation assay cells are plated onto 96 well plates and allowed to recover for 16 hours prior to the addition of inhibitor compounds for a further 72 hours. At the end of the incubation period 10% (v/v) Alamar Blue is added and incubated for a further 6 hours prior to determination of fluorescent product at […]. In the case of the non-proliferating cell assay cells are maintained at confluence for 96 hour prior to the addition of inhibitor compounds for a further 72 hours. The number of viable cells is determined by Alamar Blue assay as before. Cell lines can be obtained from the ECACC (European Collection of cell Cultures).

[8] = 40° C./75% relative humidity, t = 0
[9] = 40° C./75% relative humidity, t = 1 month
[10] = 40° C./75% relative humidity, t = 3 months
[11] = 40° C./75% relative humidity, t = 6 months

## CC[C@H](CO)Nc1nc(NCc2ccccc2)c2ncn(C(C)C)c2n1 [CYC 202]
[1]
  induction of apoptosis: induce in vitro apoptosis

## O=C(NC1CCNCC1)c1n[nH]cc1NC(=O)c1c(Cl)cccc1Cl [mesylate salt, 4-(2,6-dichlorobenzoylamino)-1H-pyrazole-3-carboxylic acid piperidin-4-ylamide methanesulphonate]
[2]; aqueous solution, 4 °C, pH 0.26, simulated gastric fluid, thermodynamic from solid, initial pH 0.26, final pH 0.26
  solubility at 3 h: 9.85 mg/mL
[2]; aqueous solution, 4 °C, pH 1, simulated gastric fluid, thermodynamic from solid, initial pH 1.00, final pH 1.00
  solubility at 3 h: 39.4 mg/mL
[2]; aqueous solution, 4 °C, pH 2.51, aqueous buffer, thermodynamic from solid, initial pH 2.51, final pH 2.51
  solubility at 3 h: 41.5 mg/mL
[2]; aqueous solution, 4 °C, pH 4.99, aqueous buffer, thermodynamic from solid, initial pH 4.99, final pH 4.99
  solubility at 3 h: 42.4 mg/mL
[2]; aqueous solution, 4 °C, pH 7.34, aqueous buffer, thermodynamic from solid, initial pH 7.34, final pH 7.34
  solubility at 3 h: 45.9 mg/mL
[2]; aqueous solution, 4 °C, pH 7.4, aqueous buffer, thermodynamic from solid, initial pH 9.04, final pH 7.40
  solubility at 3 h: 30.4 mg/mL
[2]; aqueous solution, 4 °C, pH 7.69, aqueous buffer, thermodynamic from solid, initial pH 7.69, final pH 7.69
  solubility at 3 h: 37.9 mg/mL
[2]; aqueous solution, 4 °C, pH 7.9, aqueous buffer, thermodynamic from solid, initial pH 10.97, final pH 7.90
  solubility at 3 h: 30.9 mg/mL
[2]; aqueous solution, 4 °C, pH 8.17, aqueous buffer, thermodynamic from solid, initial pH 8.17, final pH 8.17
  solubility at 3 h: 43.2 mg/mL
[2]; aqueous solution, pH 0.37, simulated gastric fluid, thermodynamic from solid, ambient temperature, initial pH 0.26, final pH 0.37
  solubility at 3 h: 15.7 mg/mL
[2]; aqueous solution, pH 0.504, simulated gastric fluid, thermodynamic from solid, Solution 1 after 6 days in the laboratory, precipitate filtered, pH 0.504 / 0.50
  solubility at 6 days: 13.9 mg/mL
[2]; aqueous solution, pH 1.06, simulated gastric fluid, thermodynamic from solid, ambient temperature, initial pH 1.00, final pH 1.06
  solubility at 3 h: 40.3 mg/mL
[2]; aqueous solution, pH 3, aqueous buffer, thermodynamic from solid, ambient temperature, initial pH 2.51, final pH 3.00
  solubility at 3 h: 44.9 mg/mL
[2]; aqueous solution, pH 6.73, aqueous buffer, thermodynamic from solid, ambient temperature, initial pH 4.99, final pH 6.73
  solubility at 3 h: 44.3 mg/mL
[2]; aqueous solution, pH 7.3, aqueous buffer, thermodynamic from solid, ambient temperature, initial pH 7.34, final pH 7.30
  solubility at 3 h: 44.5 mg/mL
[2]; aqueous solution, pH 7.4, aqueous buffer, thermodynamic from solid, ambient temperature, initial pH 8.17, final pH 7.40
  solubility at 3 h: 44.5 mg/mL
[2]; aqueous solution, pH 7.4, aqueous buffer, thermodynamic from solid, ambient temperature, initial pH 9.04, final pH 7.4
  solubility at 3 h: 35.4 mg/mL
[2]; aqueous solution, pH 7.6, aqueous buffer, thermodynamic from solid, ambient temperature, initial pH 10.97, final pH 7.6
  solubility at 3 h: 34.6 mg/mL
[2]; aqueous solution, pH 7.9, aqueous buffer, thermodynamic from solid, ambient temperature, initial pH 7.69, final pH 7.90
  solubility at 3 h: 42.1 mg/mL
[2]; pH>7 and pH<3, ambient temperature
  behaviour of solution on standing: precipitation of the salt was observed on standing
[3]; 4 °C, acetate buffer 200 mM at 4° C., initial pH 4.6, final pH 4.6, read-out: [mesylate salt] solubility
  solubility at 3 h: 37.2 mg/mL
[3]; acetate buffer 200 mM at ambient temperature, initial pH 4.6, final pH 4.5, read-out: [Mesylate salt] solubility
  solubility at 3 h: 30.7 mg/mL
[3]; acetic acid/sodium acetate buffer, solution pH approximately 4.6, read-out: solubility
  solubility at 3 h: ~35 mg/mL
[3]; in acetate buffer, read-out: solubility of the mesylate salt
  solubility at 3 h: 32 to 37 mg/mL
[4]; not exposed to relative humidities of more than 80%
  water uptake (GVS): less than 2.6 % w/w
[4]; over the range 0% relative humidity to 90% relative humidity
  water picked up (GVS isotherm): approximately 4 % in weight
[5]; 40° C., 75% relative humidity, six months
  overall stability: good stability
[5]; [8]
  (a) Description: Off-white solid
  (b) Identity by FTIR: Conforms to
  (c) Melting point by DSC, melting endotherm: 367.7 °C
  (d) Water content: <0.1% w/w
  (e) Impurities (by HPLC) Total impurities: 0.52% area
  Chemical purity: 99.48% area
  Impurity RRT 0.812 (by HPLC): 0.07% area
  Impurity RRT 1.196 (by HPLC): 0.01% area
  Impurity RRT 1.226 (by HPLC): 0.02% area
  Impurity RRT 1.303 (by HPLC): 0.02% area
  Impurity RRT 1.318 (by HPLC): 0.03% area
  Impurity RRT 1.484 (by HPLC): 0.15% area
  Impurity RRT 1.526 (by HPLC): 0.03% area
  Impurity RRT 1.680 (by HPLC): 0.19% area
[5]; [9]
  (a) Description: Off-white solid
  (b) Identity by FTIR: Conforms to
  (c) Melting point by DSC, melting endotherm: 368.3 °C
  (d) Water content: <0.1% w/w
  (e) Impurities (by HPLC) Total impurities: 0.49% area
  Chemical purity: 99.51% area
  Impurity RRT 0.812 (by HPLC): 0.07% area
  Impurity RRT 1.196 (by HPLC): 0.02% area
  Impurity RRT 1.303 (by HPLC): 0.06% area
  Impurity RRT 1.484 (by HPLC): 0.17% area
  Impurity RRT 1.680 (by HPLC): 0.17% area
[5]; [10]
  (a) Description: Off-white solid
  (b) Identity by FTIR: Conforms to
  (c) Melting point by DSC, melting endotherm: 375.5 °C
  (d) Water content: <0.1% w/w
  (e) Impurities (by HPLC) Total impurities: 0.50% area
  Chemical purity: 99.50% area
  Impurity RRT 0.812 (by HPLC): 0.06% area
  Impurity RRT 1.226 (by HPLC): 0.02% area
  Impurity RRT 1.318 (by HPLC): 0.04% area
  Impurity RRT 1.484 (by HPLC): 0.17% area
  Impurity RRT 1.526 (by HPLC): 0.04% area
  Impurity RRT 1.680 (by HPLC): 0.17% area
[5]; [11]
  (a) Description: Off-white solid
  (b) Identity by FTIR: Conforms to
  (c) Melting point by DSC, melting endotherm: 369.1 °C
  (d) Water content: <0.1% w/w
  (e) Impurities (by HPLC) Total impurities: 0.50% area
  Chemical purity: 99.50% area
  Impurity RRT 0.812 (by HPLC): 0.06% area
  Impurity RRT 1.226 (by HPLC): 0.02% area
  Impurity RRT 1.318 (by HPLC): 0.04% area
  Impurity RRT 1.484 (by HPLC): 0.17% area
  Impurity RRT 1.526 (by HPLC): 0.03% area
  Impurity RRT 1.680 (by HPLC): 0.17% area
  Impurity RRT 1.682 (by HPLC): 0.01% area
[6]; acetate buffered salt solution
  precipitation in freeze-thaw stability tests: did not result in precipitation
  stability of solution pH and salt in freeze-thaw tests: stable
[6]; acetate buffered solution, autoclaving at 121° C. for 15 minutes, then 40° C., 55° C. or 75° C. for 10-12 days
  stability of solution pH and salt: stable
[7]; 8 and 18 days
  changes in XRPD profile: No changes were observed
[7]; up to 18 days
  degradation by HPLC analysis: no degradation
HCT-1 16 cells
  IC50: 110 nM

## CN1CC[C@H](c2c(O)cc(O)c3c(=O)cc(-c4ccccc4Cl)oc23)[C@H](O)C1 [Flavopiridol]
[1]
  induction of apoptosis: induce in vitro apoptosis
